Patent US7854753B2, “Photokinetic delivery of biologically active substances using pulsed incoherent light” (Photokinetix, Inc., priority 2002, dated 2010)

Experiments:
[1] = volume of water for 1 g; cited from earlier work
[2] = Franz skin diffusion cell permeation (percutaneous absorption) under ambient, natural or pulsed incoherent LED light

Structure (SMILES)	Water Solubility (1 g) [1] [mL]	Permeation Dark ([2]; Dark control, ambient light absent) [μg/0.64 cm^2/25 hrs]	Ctrl ([2]; Table 8 (405 nm series), ambient light only)	Ctrl-TiO2 ([2]; Table 8 (405 nm series), ambient light, 2% TiO2)	Ctrl-TiO2/1.7 ([2]; Table 8, 405 nm series, 2% TiO2, 1.7 cps)	Ctrl-TiO2/9.7 ([2]; Table 8, 405 nm series, 2% TiO2, 9.7 cps)	Ctrl-TiO2/24 ([2]; Table 8, 405 nm series, 2% TiO2, 24 cps)	405/1.7 ([2]; Table 8, 405 nm, 1.7 cps)	405/9.7 ([2]; Table 8, 405 nm, 9.7 cps)	405/24 ([2]; Table 8, 405 nm, 24 cps)	Permeation Ctrl ([2]; ambient cool fluorescent light only, 260-750 nm, 120 cps) [μg/0.64 cm^2/25 hrs]	Permeation Ctrl-TiO2 ([2]; ambient fluorescent light, sample with 2% (w/w) rutile TiO2) [μg/0.64 cm^2/25 hrs]	Effect of 2% (w/w) TiO2 on permeation ([2]; ambient light, FIG. 4)
NC(=O)c1cccnc1 [Compound 10, Nicotinamide]	1	543.70	42.72	851.83	668.31	1387.33	0.00	26.22	32.69	0.00	42.72	851.80	significant effect
Cn1c(=O)c2[nH]cnc2n(C)c1=O [Compound 8, Theophylline]	120												
Cn1cnc2c1c(=O)[nH]c(=O)n2C [Compound 7, Theobromine]	2000												
